These results are taken from patent US10294253B2, “Siloxane-containing phospholipids, compositions and uses thereof” (priority 2016, dated 2019).

Where “and” joins values, the source holds several entries; their conditions need not be identical. Identical values can stand only once. Like-named read-outs stand apart in the source and are kept apart here. Marks after values point to notes of the source that are not given here.

A short description of data set [1]: Langmuir isotherms of phospholipid monolayers. It counts as physicochemical. Conditions: 21.5° C. The source says:
The interfacial phase behaviour of lipids and phospholipids is an important area of study. Data from Langmuir isotherms can give insight into packing behaviour and collapse mechanisms of phospholipid monolayers. FIG. 1 presents the Langmuir isotherms for 1,2-SiPC, 1,3-SiPC, 1,2-dipalmitoyl-sn-3-phosphocholine (DPPC), and 1-palmitoyl-2-oleoyl-sn-3-phosphocholine (POPC). DPPC and POPC are biologically relevant lipids that are commonly used as model systems in the study of membrane topology. These two lipids differ in the degree of unsaturation with POPC containing a single unit of unsaturation in the oleic acid FA chain. […] The surface area at the collapse of 1,2-SiPC was approximately 70 Å^2 and that for 1,3-SiPC was 87 Å^2. Both of these values are larger than those observed for DPPC and POPC.
While not wishing to be bound by theory, the larger size of the siloxane tails strongly affects the mean molecular area of the lipid as well as the lipid area at monolayer collapse. Furthermore, the rotational freedom of the siloxane unit leads to behaviour similar to that for unsaturated phospholipids such as POPC.

The nature of data set [2]: Small-angle X-ray scattering (SAXS) of vesicle suspensions, 3-Gaussian electron density model. In kind it is physicochemical. Conditions: for derived lipid volume / derived lipid volume relative to the volume from the atomic covalent radii: 3-Gaussian model; for ρC (fit parameter, hydrocarbon chain electron density relative to water) / zH (fit parameter, position of headgroup Gaussian) / σC (fit parameter, standard deviation of hydrocarbon Gaussian) / σH (fit parameter, standard deviation of headgroup Gaussian): 20° C, POPC ULVs with 5 mol % POPG; for ρC (fit parameter, hydrocarbon chain electron density relative to water): extruded 100 nm, SiPC freeze-thaw; for ρC (fit parameter, hydrocarbon chain electron density relative to water) / SAXS curve: bilayer-bilayer structure factor (Bragg peak), lamellarity: not extruded; for zH (fit parameter, position of headgroup Gaussian) / σC (fit parameter, standard deviation of hydrocarbon Gaussian) / σH (fit parameter, standard deviation of headgroup Gaussian): extruded, SiPC not extruded; for SAXS curve: bilayer-bilayer structure factor (Bragg peak), lamellarity: freeze-thaw liposomes. The protocol:
(§1) SiPCs were prepared as described above in Example 1. Aqueous dispersions of SiPCs were prepared by five freeze-thaw cycles to give opaque suspensions of vesicles suitable for Small-angle X-ray scattering (SAXS) analysis. Dispersion particle size was determined by dynamic light scattering (DLS) with a Nano Zetasizer ZS90 (Malvern Instruments, Worcestershire, U.K.).
(§2) 1-Palmitoyl-2-oleoyl-sn-3-glycercophosphocholine (POPC) and 1-palmitoyl-2-oleoyl-sn-3-glcyercophosphoglycerol (POPG) were purchased from Avanti Polar Lipids (Alabaster, Ala.) and used as received. POPC and 5 mol % POPG were co-dissolved in a chloroform:methanol (3:1) mixture. POPC was doped with 5 mol % POPG, to minimize pauci-lamellar vesicle contamination. Solvent was removed under a gentle stream of dry nitrogen gas then was put under vacuum for 8 hours. POPC:POPG film was hydrated with ultrapure water to a concentration of ˜30 mg/mL. ULVs were prepared using a manual miniextruder (Avanti Polar Lipids, Alabaster, Ala.), assembled with a 100 nm pore-diameter polycarbonate filter. The lipid suspension was passed through the filter 31 times. SAXS data were collected at the P12 BioSAXS beamline at the storage ring PETRA III (synchrotron DESY, Hamburg)^26 at a temperature of 20° C. SAXS data were visualized, averaged and the background was subtracted using ATSAS^27 and modelled using the method of Pabst et al.^28 The data was fit utilizing a standard non-linear least-squares fitting (NLSF) scheme within Origin (OriginLab, USA). Vesicle size was determined by dynamic light scattering (DLS) with a Nano Zetasizer ZS90 (Malvern Instruments, Worcestershire, U.K.)
SAXS is sensitive to the presence of multilamellar vesicles (MLVs) and is used to evaluate the presence of MLVs. Shown in FIG. 2 are SAXS data for an about 40 mM POPC vesicle suspension in water as 100 nm ULV (black) and MLVs (gray). For MLVs, density correlations between the stacked bilayers give rise to a bilayer-bilayer structure factor also known as Bragg Peaks at a length scale corresponding to integer multiples of the lamellar repeat distance (e.g., the first Bragg order at q˜0.1 Å^−1, corresponding to a lamellar repeat distance of ˜63 Å).
The scattering regime where bilayer structure (as opposed to vesicle sphericity) dominates the form factor is of most interest as information about vesicle size is obtained from the DLS. The scattered intensity of a dilute vesicle suspension is given by:
The functional model chosen to describe the electron density of the siloxane phospholipids is the three Gaussian model as outlined by Pabst et al. (2000).^28 In this model, the electron distribution is the summation of the headgroups, described by a single Gaussian (in total 2, one for each leaflet of the bilayer) and a Gaussian representing the hydrocarbon chains, Eqn 2.
The position of the Gaussian peak is at zi where i=H or C and zC=0, with a standard deviation of σi. For simplicity, ρH−ρw and ρC−ρw are referred to herein as ρH and ρC respectively. The form factor of this electron density model can then be calculated analytically by applying Eqn 3: F(q)=∫ρ(z)exp(iqz)dz (3) which yields:
Only the cosine terms remain due to the centrosymmetric nature of a single component lipid bilayer. A benefit of this method is that structural parameters can be derived from simple geometric relationships, without the need of volumetric data. Typically area per lipid AL is one of the more desirable structural parameters to be extracted from the data. To begin, the transverse structure of the bilayer is derived (along the bilayer normal), such as the hydrocarbon length (dC) and the headgroup thickness (dH). Simply, dH can be estimated from the full width at half maximum (FWHM) of the Gaussian describing the headgroups. Using dH, dC can be determined as: […]

The nature of data set [3]: Dynamic light scattering (DLS) of liposome suspensions. It counts as physicochemical. Conditions: for Dia. (vesicle diameter, most abundant population) / Rel. pop. (most abundant population) / Dia. (vesicle diameter, second population) / Rel. pop. (second population): aqueous suspension; for Dia. (vesicle diameter, most abundant population): POPC with 5 mol % POPG extruded through 100 nm membrane, SiPC not extruded; for Rel. pop. (most abundant population): first population; for polydispersity: most abundant population, liposomes not extruded. The method, then:
POPC ULVs contain 5 mol % of 1-palmitoyl-2-oleoyl-sn-3-glcyercophosphoglycerol (POPG) and were extruded through a 100 nm polycarbonate membrane. SiPC suspensions were not extruded.
as §1, §2
The diameter standard deviation (a) for the vesicles (most abundant population) was below 20% of the diameter for liposomes of 1,2-SiPC and 1,3-SiPC, thus implying very low polydispersities of 0.16 and 0.19 respectively.

The conditions of data set [4]: fixed using experimentally determined volume, cited from earlier work; for ρH (fit parameter, headgroup electron density relative to water): 20° C.
The conditions of data set [5]: literature SDP model; cited from earlier work.
For data set [6] the following is noted: literature value; cited from earlier work.
Where [7] appears, read: geometrically derived from SAXS fit.

In the case of `C[N+](C)(C)CCOP(=O)([O-])OCC(COC(=O)CCCCCCCCC[Si](C)(C)O[Si](C)(C)O[Si](C)(C)C)OC(=O)CCCCCCCCC[Si](C)(C)O[Si](C)(C)O[Si](C)(C)C` (racemic) [1,2-SiPC], the “surface area at the collapse of the monolayer” value in data set [1] is listed as “approximately 70 Å^2”. For the same compound, in data set [2], the derived lipid volume is recorded as 1574 Å^3; the “derived lipid volume relative to the volume from the atomic covalent radii” value is reported as 7 factor; the “ρC (fit parameter, hydrocarbon chain electron density relative to water)” value is recorded as −0.106 ± 0.002 e/Å^3; the “zH (fit parameter, position of headgroup Gaussian)” value (from here on “zH”) is reported as 18.2 ± 0.05 Å. Further, in data set [2], the “σC (fit parameter, standard deviation of hydrocarbon Gaussian)” value stood at 14.1 ± 0.2 Å; the “σH (fit parameter, standard deviation of headgroup Gaussian)” value stood at 4.6 ± 0.1 Å; the “SAXS curve: bilayer-bilayer structure factor (Bragg peak), lamellarity” value is reported as “without the presence of a bilayer-bilayer structure factor (Bragg Peak)”. Besides, in data set [2] (setting [7]), the “AL (area per lipid)” value turned out to be 69 ± 2 Å^2, the “VC (hydrocarbon volume)” value was 1243 ± 42 Å^3, the “dB (bilayer thickness)” value came to 45.5 ± 0.3 Å and the “dC (hydrocarbon length)” value was 9.9 ± 0.5 Å. Moreover, in data set [2] (setting [7]), the “dH (headgroup thickness)” value is reported as 9.1 ± 0.3 Å and the “dHH (headgroup-headgroup distance)” value was 36.3 ± 0.1 Å. In data set [3], the “Dia. (vesicle diameter, most abundant population)” value came to 193.7 nm; the “Rel. pop. (most abundant population)” value was 79%; the “Dia. (vesicle diameter, second population)” value is listed as 949.8 nm; the “Rel. pop. (second population)” value is reported as 21%. The polydispersity in data set [3] worked out at 0.16. For the same compound, in data set [4], the “ρH (fit parameter, headgroup electron density relative to water)” value was 0.1609^a e/Å^3 and the “VH (PC headgroup volume)” value was 331^a Å^3.
In the case of `C[N+](C)(C)CCOP(=O)([O-])OC(COC(=O)CCCCCCCCC[Si](C)(C)O[Si](C)(C)O[Si](C)(C)C)COC(=O)CCCCCCCCC[Si](C)(C)O[Si](C)(C)O[Si](C)(C)C` [1,3-SiPC], the “surface area at the collapse of the monolayer” value in data set [1] was determined as 87 Å^2. Moreover, in data set [2], the derived lipid volume is on record as 1577 Å^3; the “derived lipid volume relative to the volume from the atomic covalent radii” value is 7 factor; the “ρC (fit parameter, hydrocarbon chain electron density relative to water)” value is recorded as −0.101 ± 0.003 e/Å^3; the “zH” value is reported as 17.6 ± 0.1 Å. Also, in data set [2], the “σC (fit parameter, standard deviation of hydrocarbon Gaussian)” value was 13.3 ± 0.3 Å; the “σH (fit parameter, standard deviation of headgroup Gaussian)” value came out at 4.3 ± 0.2 Å; the “SAXS curve: bilayer-bilayer structure factor (Bragg peak), lamellarity” value is “without the presence of a bilayer-bilayer structure factor (Bragg Peak)”. Besides, in data set [2] (setting [7]), the “AL (area per lipid)” value came out at 72 ± 4 Å^2, the “VC (hydrocarbon volume)” value is given as 1246 ± 81 Å^3, the “dB (bilayer thickness)” value came out at 43.9 ± 0.4 Å and the “dC (hydrocarbon length)” value turned out to be 13.2 ± 0.2 Å. Further, in data set [2] (setting [7]), the “dH (headgroup thickness)” value came out at 8.6 ± 0.5 Å and the “dHH (headgroup-headgroup distance)” value is recorded as 35.3 ± 0.1 Å. For the same compound, in data set [3], the “Dia. (vesicle diameter, most abundant population)” value was 123.4 nm; the “Rel. pop. (most abundant population)” value is 89%; the “Dia. (vesicle diameter, second population)” value is 684.9 nm; the “Rel. pop. (second population)” value is listed as 11%. For the same compound, in data set [3], the polydispersity is 0.19. For the same compound, in data set [4], the “ρH (fit parameter, headgroup electron density relative to water)” value is reported as 0.1609^a e/Å^3 and the “VH (PC headgroup volume)” value is recorded as 331^a Å^3.
With `CCCCCCCC/C=C\CCCCCCCC(=O)O[C@H](COC(=O)CCCCCCCCCCCCCCC)COP(=O)([O-])OCC[N+](C)(C)C` [POPC, 1-palmitoyl-2-oleoyl-sn-3-phosphocholine, reference compound], in data set [2], the “ρC (fit parameter, hydrocarbon chain electron density relative to water)” value is −0.152 ± 0.002 e/Å^3; the “zH” value stood at 18.16 ± 0.08 Å; the “σC (fit parameter, standard deviation of hydrocarbon Gaussian)” value was found to be 6.9 ± 0.2 Å; the “σH (fit parameter, standard deviation of headgroup Gaussian)” value came out at 3.77 ± 0.06 Å. Also, the lamellar repeat distance in data set [2] (about 40 mM POPC MLVs in water, first Bragg order at q~0.1 Å^-1) is listed as ~63 Å. Moreover, in data set [2] (setting [7]), the “AL (area per lipid)” value is recorded as 58.9 ± 2^ Å^2; the “VC (hydrocarbon volume)” value was 961 ± 27 Å^3; the “dB (bilayer thickness)” value is 43.7 Å and 43.7 ± 0.2 Å; the “dC (hydrocarbon length)” value was 14.4 Å and 14.4 ± 0.1 Å. Further, in data set [2] (setting [7]), the “dH (headgroup thickness)” value was determined as 7.5 ± 0.2 Å; the “dHH (headgroup-headgroup distance)” value was 36.3 Å and 36.3 ± 0.1 Å; the “derived AL (area per lipid)” value came out at 58.9±2 Å. Also, in data set [3], the “Dia. (vesicle diameter, most abundant population)” value amounted to 98.1 nm and the “Rel. pop. (most abundant population)” value came out at 100%. In data set [4], the “ρH (fit parameter, headgroup electron density relative to water)” value is given as 0.1609^a e/Å^3 and the “VH (PC headgroup volume)” value is on record as 331^a Å^3. In addition, in data set [5], the “AL, SDP model derived” value is recorded as 62.7±1 Å; the “dB (bilayer thickness), SDP analysis” value is 39.8 Å; the “dC (hydrocarbon length), SDP analysis” value is 14.6 Å; the “dHH (headgroup-headgroup distance), SDP analysis” value was 37.4 Å.
As to `CC(C)CCCC(C)CCCC(C)CCCC(C)CC(=O)OC[C@H](COP(=O)([O-])OCC[N+](C)(C)C)OC(=O)CC(C)CCCC(C)CCCC(C)CCCC(C)C` (stereo partly drawn) [diPhyPC, 1,2-diphytanoyl-sn-glycero-3-phosphatidylcholine], the “AL (area per lipid)” value in data set [6] is 78 Å^2.
